Assay [1] addresses T1, L-FABP (Rattus norvegicus, UniProt P02692).
T1 construct: made in house
T1 sequence (P02692 1-127): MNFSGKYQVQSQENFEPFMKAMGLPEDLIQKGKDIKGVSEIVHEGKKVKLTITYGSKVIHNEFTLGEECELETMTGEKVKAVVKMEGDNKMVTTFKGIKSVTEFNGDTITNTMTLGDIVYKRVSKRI
Nature of the assay: Displacement of L-FABP-bound NBD-stearic acid. It is filed as binding. How it is done:
(§1) Advantage was taken of the fact that NBD-stearic acid bound to L-FABP (two ligand binding sites) as well as SCP-2 (single-ligand binding site) to design a NBD-stearic acid displacement assay that allowed determination of which fatty acid synthesis inhibitors or their CoA thioesters bound to these LCFA/LCFA-CoA binding proteins. Displacement of NBD-stearate from L-FABP and SCP-2 was determined by incubating L-FABP or SCP-2 (25 nM in 10 mM phosphate buffer) with NBD stearate (40 nM) for 12 min to obtain maximal fluorescence, followed by titration with increasing amount of ligand. From the displacement curve, the K i value was calculated as described. All experiments were carried out with a thermostated cuvette to maintain temperature at 24°C using a circulating water bath. ANS displacement assay was performed as described.

For assay [2], the target named is T2, SCP-2 (Homo sapiens, UniProt P22307).
T2 construct: made in house
T2 sequence (P22307 1-143 isoform P22307-2): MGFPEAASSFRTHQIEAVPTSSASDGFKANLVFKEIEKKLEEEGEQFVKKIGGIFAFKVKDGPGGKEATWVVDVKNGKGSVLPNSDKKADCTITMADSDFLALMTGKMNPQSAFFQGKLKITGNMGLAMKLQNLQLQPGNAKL
Nature of the assay: Displacement of SCP-2-bound NBD-stearic acid. It is filed as binding. As for the experimental part: as §1

Assay [3] addresses T1, L-FABP. Nature of the assay: Displacement of L-FABP-bound ANS. The note with it: read-out: K i, displacing L-FABP-bound ANS. It is filed as binding. As for the experimental part:
as §1

Assay [4] has as its system PPARα transcription of CPT1A, CPT2, ACOX1. Nature of the assay: rtPCR of CPT1A, CPT2, ACOX1 mRNA in wild-type mouse primary hepatocytes. It is filed as cell-based. The note with it: inhibitor 10 μg/mL, 5 hr. As for the experimental part:
(§2) Mouse hepatocytes were isolated from livers of male wild-type and L-FABP null mice as described. To study the effect of TOFA and C75 at different glucose levels, mouse hepatocytes were cultured overnight with DMEM/F-12 supplemented with 5% FBS. Cells were incubated with glucose-free DMEM supplemented with fatty acid-free BSA (40 μM), 100 nM insulin, 10 nM dexamethasone, and without (no inhibitor) or with the de novo fatty acid synthesis inhibitors C75 or TOFA (10 μg/mL) for 30 min (1 mL/well). Cells were incubated further for 5 hr with 6 or 20 mM glucose without or with the inhibitors.
(§3) Transcription of key enzymes in mitochondrial (CPT1A and CPT2) and peroxisomal (ACOX1) β-oxidation of long chain fatty acid (LCFA) was determined by rtPCR similarly as described. Briefly, the RNeasy mini kit from Qiagen Sciences (MD, USA) was used as per the manufacturer's instructions to isolate total RNA, which was then quantified spectrophotometrically. Quantitative real-time PCR was performed with an ABI PRISM 7000 Sequence Detection System (SDS) from Applied Biosystems (Foster City, CA, USA) to determine relative mRNA expression for CPT1A, CPT2, and ACOX1. The thermal protocol was as follows: 48°C for 30 min, 95°C for 10 min before the first cycle, 95°C for 15 sec, and 60°C for 60 sec, repeated 40 times. TaqMan One-Step Master Mix and Gene Expression Assays for mouse CPT1A (Mm 00550438_m1), CPT2 (Mm 00487202_m1), and ACOX1 (Mm 00443579_m1) were purchased from Applied Biosystems (Life Technologies, Carlsbad, CA, USA). Triplicates of each sample were analyzed with ABI PRISM 7000 SDS software (Applied Biosystems) to determine ΔCt relative to a positive control (18S housekeeping gene). The fold change in the abundance of CPT1A, CPT2, and ACOX1 mRNAs was determined in primary mouse hepatocytes treated with albumin (40 μM) in the absence and presence of lipid synthesis inhibitors (C75, TOFA, 10 μg/mL) in glucose-free DMEM medium supplemented with 100 nM insulin, 10 nM dexamethasone, and either 6 or 20 mM glucose. The comparative 2^−ΔΔCt calculation method was used as described in User Bulletin 2, ABI Prism 7000 SDS (Applied Biosystems), and earlier. Finally, protein levels of liver fatty acid binding protein (L-FABP), sterol carrier protein-2 (SCP-2), acyl CoA binding protein (ACBP), peroxisome proliferator activated receptor (PPARα), liver X receptor-α (LXRα), carbohydrate response element binding protein (ChREBP), and sterol response element binding protein (SREBP) were determined by western blotting as described.

Assay [5] has the same test system. Nature of the assay: rtPCR of CPT1A, CPT2, ACOX1 mRNA in L-FABP (−/−) null mouse primary hepatocytes. To be noted: for PPARα transcription of CPT1A, CPT2, ACOX1 (mRNA): 6 mM glucose; for PPARα transcription of CPT1A, CPT2, ACOX1 (mRNA) / Ability to activate PPARα transcription of CPT1A, CPT2, ACOX1 (mRNA): inhibitor 10 μg/mL, 5 hr. It is filed as cell-based.
Description: Wild-type mice on a C57BL/6N background purchased from Charles River Laboratories (Wilmington, MA, USA) were obtained from the National Cancer Institute (Frederick Cancer Research and Development Center, Frederick, MD, USA). L-FABP (−/−) null mice were obtained by targeted disruption of the L-FABP gene and backcrossed to C57Bl/6N background to the N10 (99.9% homogeneity) generation. For hepatocyte isolation, livers were collected from male mice aged 3–6 mo. Mouse protocols were approved by the Institutional Animal Care and Use Committee (IACUC) at Texas A&M University. Mice were kept under a constant 12/12 light-dark cycle and had access to food and water ad libitum.
as §2, §3

The test system of assay [6] is CPT1A. Further details: method as in PMID 39932, PMID 4051503, PMID 12060712, PMID 502765. To be noted: rat hepatocytes, media with high glucose (11 mM); cited from earlier work.
Assay [7] concerns the target T1, L-FABP. Nature of the assay: L-FABP tyrosine fluorescence quenching. It is filed as binding. The note with it: L-FABP 100 nM. As for the experimental part:
Tyrosine fluorescence of L-FABP (100 nM) in 10 mM phosphate buffer was monitored by scanning from 290 to 400 nm, with excitation wavelength 280 nm, before and after small increments of added binding ligand. The binding curve was constructed by plotting tyrosine fluorescence intensity at 305 nm versus concentration of the ligand. K d was then calculated as described.

For assay [8], the system named is PPARα. To be noted: COS7 cells; cited from earlier work.

Consider `C=C1C(=O)OC(CCCCCCCC)C1C(=O)O` (stereo not drawn) [C75, 4-methylene-2-octyl-5-oxotetrahydrofuran-3-carboxylic acid], for which, in assay [1], the “Displacement of NBD-stearic acid bound to L-FABP (in words)” value is on record as “weaker”. Further, in assay [2], the “Displacement of NBD-stearic acid bound to SCP-2 (in words)” value was “barely detectable”. The “K i, displacing SCP-2-bound NBD-stearic acid” value in assay [2] (SCP-2 25 nM, NBD stearate 40 nM, 24°C) was “not bound^(a)”. In assay [3], the Ki is 5590 ± 310 nM. The “PPARα transcription of CPT1A, CPT2, ACOX1 (mRNA)” value in assay [4] (6 mM glucose) is “neither TOFA nor C75 significantly altered”; in assay [4] (20 mM glucose), “induced”; in assay [5], “lack of effect”. Besides, the “Ability to activate PPARα transcription of CPT1A, CPT2, ACOX1 (mRNA)” value in assay [5] (20 mM glucose) was “abolished”. Besides, the “CPT1A activity and fatty acid oxidation” value in assay [6] is listed as “increased”.
With `CCCCCCCCCCCCCCOc1ccc(C(=O)O)o1` [TOFA, 5-tetradecyloxy-2-furancarboxylic acid], the Ki in assay [1] (L-FABP 25 nM, NBD stearate 40 nM, 24°C, read-out: K i, displacing L-FABP-bound NBD-stearic acid) was determined as 66 ± 3 nM; in assay [2] (SCP-2 25 nM, NBD stearate 40 nM, 24°C, read-out: K i, displacing SCP-2-bound NBD-stearic acid), 227 ± 20 nM. Moreover, the “Fluorescence of L-FABP-bound NBD-stearic acid decreasing to” value in assay [1] (at 650 nM TOFA) came out at 40%. Besides, the “Quenching of L-FABP tyrosine emission (in words)” value in assay [7] is given as “efficiently quenched”. In assay [7] (10 mM phosphate buffer, read-out: K d by L-FABP tyrosine quenching (converted)), the Kd was 57 nM. In addition, the “PPARα transcription of CPT1A, CPT2, ACOX1 (mRNA)” value in assay [4] (6 mM glucose) was “neither TOFA nor C75 significantly altered”; in assay [4] (20 mM glucose), “induced”; in assay [5] it was “lack of effect”. Further, the “Decrease of PPARα transcription of CPT1A, CPT2, or ACOX1” value in assay [5] (20 mM glucose, TOFA 10 μg/mL) was approximately 50%. Further, in assay [5] (20 mM glucose), the “Ability to activate PPARα transcription of CPT1A, CPT2, ACOX1 (mRNA)” value was “abolished”. For the same molecule, the “Transactivation of PPARα” value in assay [8] is listed as “transactivated”. Also, the “CPT1A activity and fatty acid oxidation” value in assay [6] was “increased”.

The values above are taken from article PMC3600304, “Inhibitors of Fatty Acid Synthesis Induce PPARα-Regulated Fatty Acid β-Oxidative Genes: Synergistic Roles of L-FABP and Glucose” (PPAR Research, 2013).
